Tested on: orthotopic GBM1A tumors
Format: in vivo
Conditions: 10 mg/kg ip each drug once every 4 days for 28 days
Description: Female NSG mice were intracranially implanted with 500,000 luciferase expressing GBM1A cells (transduced with lentiviral particles expressing GFP-Luciferase). After 7 days, animals were randomized into four groups and ip administered with microemulsion vehicle, 10 mg/kg elacridar, 10 mg/kg ispinesib, or a combination of 10 mg/kg ispinesib and 10 mg/kg elacridar, once every 4 days for 28 days (n = 10). The dosing schedule of once every 4 days was based on our previously publication with ispinesib. Tumor growth was monitored by bioluminescence imaging and animals were followed for survival.
The progression of tumor growth was monitored by bioluminescence imaging (BLI) using an IVIS system. Mice that underwent stereotactic injection with GFP-luciferase expressing GBM1A cells were imaged twice a week. Ten minutes prior to imaging, mice were intraperitoneally injected with d-luciferin at 75 mg/kg body weight (3 mL/kg injection volume). Animals were immobilized using 1.5% − 3.0% isoflurane provided by nose cones within the imager and were kept warm using a heated stage set at 37 °C during the imaging procedure. Following imaging for about 5 minutes, animals were removed from the IVIS chamber and monitored until they fully recovered from anesthesia.

## Cc1ccc(C(=O)N(CCCN)[C@@H](c2nc3cc(Cl)ccc3c(=O)n2Cc2ccccc2)C(C)C)cc1 [Ispinesib, N-(3-aminopropyl)-N-[(1 R)-1-(3-benzyl-7-chloro-4-oxoquinazolin-2-yl)-2-methylpropyl]-4-methylbenzamide]
Days 7–37
  tumor doubling time (bioluminescence, single exponential fit): 9.4 days
Vehicle 61 days
  median survival: 74 days

Source: PMC7162859 (Scientific Reports, 2020)
